Assay results from PubChem BioAssay (NCI).
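Interpolation was linear, between the two tested concentrations surrounding the appropriate level; five concentrations were tested over 48 hours in 96-well plates. GI50 = concentration required for 50% inhibition of growth. Definition used: TGI = concentration required for complete inhibition of growth.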

Tests used:
Experiment in all cases: NCI-60 cell line screen, 48 h
HCT-15 colon = tested on: HCT-15 colon
OVCAR-3 ovarian = tested on: OVCAR-3 ovarian
LOX IMVI melanoma = tested on: LOX IMVI melanoma
SK-MEL-2 melanoma = tested on: SK-MEL-2 melanoma
SK-MEL-28 melanoma = tested on: SK-MEL-28 melanoma
UO-31 renal = tested on: UO-31 renal
OVCAR-5 ovarian = tested on: OVCAR-5 ovarian
SK-OV-3 ovarian = tested on: SK-OV-3 ovarian
SF-539 CNS = tested on: SF-539 CNS
HS 578T breast = tested on: HS 578T breast
KM12 colon = tested on: KM12 colon
NCI/ADR-RES ovarian = tested on: NCI/ADR-RES ovarian
SR leukemia = tested on: SR leukemia
NCI-H522 lung = tested on: NCI-H522 lung
T-47D breast = tested on: T-47D breast
SNB-19 CNS = tested on: SNB-19 CNS
IGROV1 ovarian = tested on: IGROV1 ovarian
RPMI-8226 leukemia = tested on: RPMI-8226 leukemia
SW-620 colon = tested on: SW-620 colon
TK-10 renal = tested on: TK-10 renal
CAKI-1 renal = tested on: CAKI-1 renal
786-0 renal = tested on: 786-0 renal
CCRF-CEM leukemia = tested on: CCRF-CEM leukemia
M14 melanoma = tested on: M14 melanoma
ACHN renal = tested on: ACHN renal
RXF 393 renal = tested on: RXF 393 renal
HOP-92 NSCLC = tested on: HOP-92 NSCLC
U251 CNS = tested on: U251 CNS
A549 NSCLC = tested on: A549 NSCLC
EKVX NSCLC = tested on: EKVX NSCLC
K-562 leukemia = tested on: K-562 leukemia
DU-145 prostate = tested on: DU-145 prostate
MOLT-4 leukemia = tested on: MOLT-4 leukemia
SK-MEL-5 melanoma = tested on: SK-MEL-5 melanoma
NCI-H226 lung = tested on: NCI-H226 lung
MCF7 breast = tested on: MCF7 breast
MDA-MB-435 = tested on: MDA-MB-435
HCT-116 colon = tested on: HCT-116 colon
NCI-H23 lung = tested on: NCI-H23 lung
MDA-MB-231 breast = tested on: MDA-MB-231 breast
SN12C renal = tested on: SN12C renal
A498 renal = tested on: A498 renal
MALME-3M melanoma = tested on: MALME-3M melanoma
PC-3 prostate = tested on: PC-3 prostate
UACC-62 melanoma = tested on: UACC-62 melanoma
UACC-257 melanoma = tested on: UACC-257 melanoma
OVCAR-4 ovarian = tested on: OVCAR-4 ovarian
HCC-2998 colon = tested on: HCC-2998 colon
HT29 colon = tested on: HT29 colon
SNB-75 CNS = tested on: SNB-75 CNS
SF-295 CNS = tested on: SF-295 CNS
COLO 205 colon = tested on: COLO 205 colon
NCI-H460 lung = tested on: NCI-H460 lung
SF-268 CNS = tested on: SF-268 CNS
HOP-62 NSCLC = tested on: HOP-62 NSCLC
OVCAR-8 ovarian = tested on: OVCAR-8 ovarian

O=C1C(Cl)=C(Nc2cccc(O)c2)C(=O)N1Cc1ccc(Cl)cc1Cl
GI50 (HCT-15 colon): 7.45 µM | TGI (HCT-15 colon): 22.6 µM | GI50 (OVCAR-3 ovarian): 12.1 µM | TGI (OVCAR-3 ovarian): 26.4 µM | GI50 (LOX IMVI melanoma): 4.06 µM | TGI (LOX IMVI melanoma): 15.5 µM | GI50 (SK-MEL-2 melanoma): 1.25 µM | TGI (SK-MEL-2 melanoma): 11.1 µM | GI50 (SK-MEL-28 melanoma): 3.89 µM | TGI (SK-MEL-28 melanoma): 18.3 µM | GI50 (UO-31 renal): 1.87 µM | TGI (UO-31 renal): 14.5 µM | GI50 (OVCAR-5 ovarian): 11.7 µM | TGI (OVCAR-5 ovarian): 29.2 µM | GI50 (SK-OV-3 ovarian): 9.43 µM | TGI (SK-OV-3 ovarian): 23.7 µM | GI50 (SF-539 CNS): 0.561 µM | TGI (SF-539 CNS): 13.8 µM | GI50 (HS 578T breast): 1.66 µM | TGI (HS 578T breast): 21.8 µM | GI50 (KM12 colon): 10.1 µM | TGI (KM12 colon): 25.2 µM | GI50 (NCI/ADR-RES ovarian): 2 µM | TGI (NCI/ADR-RES ovarian): 26.6 µM | GI50 (SR leukemia): 1.88 µM | TGI (SR leukemia): 11.9 µM | GI50 (NCI-H522 lung): 1.43 µM | TGI (NCI-H522 lung): 9.95 µM | GI50 (T-47D breast): 19.1 µM | TGI (T-47D breast): > 100 µM | GI50 (SNB-19 CNS): 3.39 µM | TGI (SNB-19 CNS): 33.8 µM | GI50 (IGROV1 ovarian): 1.17 µM | TGI (IGROV1 ovarian): 13.8 µM | GI50 (RPMI-8226 leukemia): 1.08 µM | TGI (RPMI-8226 leukemia): 14 µM | GI50 (SW-620 colon): 0.565 µM | TGI (SW-620 colon): 15.7 µM | GI50 (TK-10 renal): 13.6 µM | TGI (TK-10 renal): 28.4 µM | GI50 (CAKI-1 renal): 13.4 µM | TGI (CAKI-1 renal): 26.7 µM | GI50 (786-0 renal): 1.94 µM | TGI (786-0 renal): 18.8 µM | GI50 (CCRF-CEM leukemia): 2.82 µM | TGI (CCRF-CEM leukemia): 52.7 µM | GI50 (M14 melanoma): 8.18 µM | TGI (M14 melanoma): 22.8 µM | GI50 (ACHN renal): 5.59 µM | TGI (ACHN renal): 17.7 µM | GI50 (RXF 393 renal): 1.06 µM | TGI (RXF 393 renal): 11.1 µM | GI50 (HOP-92 NSCLC): 12.2 µM | TGI (HOP-92 NSCLC): 26.9 µM | GI50 (U251 CNS): 4.31 µM | TGI (U251 CNS): 15.5 µM | GI50 (A549 NSCLC): 8.33 µM | TGI (A549 NSCLC): 28.1 µM | GI50 (EKVX NSCLC): 10 µM | TGI (EKVX NSCLC): 26.6 µM | GI50 (K-562 leukemia): 4.81 µM | TGI (K-562 leukemia): 29.7 µM | GI50 (DU-145 prostate): 11.3 µM | TGI (DU-145 prostate): 24.2 µM | GI50 (MOLT-4 leukemia): 3.22 µM | TGI (MOLT-4 leukemia): 19.2 µM | GI50 (SK-MEL-5 melanoma): 0.84 µM | TGI (SK-MEL-5 melanoma): 5.64 µM | GI50 (NCI-H226 lung): 1.11 µM | TGI (NCI-H226 lung): 20.4 µM | GI50 (MCF7 breast): 10.9 µM | TGI (MCF7 breast): 30.7 µM | GI50 (MDA-MB-435): 6.72 µM | TGI (MDA-MB-435): 19.5 µM | GI50 (HCT-116 colon): 2.01 µM | TGI (HCT-116 colon): 12.4 µM | GI50 (NCI-H23 lung): 3.78 µM | TGI (NCI-H23 lung): 17.8 µM | GI50 (MDA-MB-231 breast): 1.17 µM | TGI (MDA-MB-231 breast): 11 µM | GI50 (SN12C renal): 2.67 µM | TGI (SN12C renal): 15.1 µM | GI50 (A498 renal): 1.57 µM | TGI (A498 renal): 10.2 µM | GI50 (MALME-3M melanoma): 1.18 µM | TGI (MALME-3M melanoma): 14.9 µM | GI50 (PC-3 prostate): 4.88 µM | TGI (PC-3 prostate): 19.6 µM | GI50 (UACC-62 melanoma): 3.49 µM | TGI (UACC-62 melanoma): 14.7 µM | GI50 (UACC-257 melanoma): 8.76 µM | TGI (UACC-257 melanoma): 21.5 µM | GI50 (OVCAR-4 ovarian): 2.9 µM | TGI (OVCAR-4 ovarian): 15 µM | GI50 (HCC-2998 colon): 3.55 µM | TGI (HCC-2998 colon): 16.4 µM | GI50 (HT29 colon): 1.29 µM | TGI (HT29 colon): 90.3 µM | GI50 (SNB-75 CNS): 6.1 µM | TGI (SNB-75 CNS): 20.6 µM | GI50 (SF-295 CNS): 11.3 µM | TGI (SF-295 CNS): 25.1 µM | GI50 (COLO 205 colon): 3.11 µM | TGI (COLO 205 colon): 30.2 µM | GI50 (NCI-H460 lung): 11.4 µM | TGI (NCI-H460 lung): 29.7 µM | GI50 (SF-268 CNS): 6.09 µM | TGI (SF-268 CNS): 21.9 µM | GI50 (HOP-62 NSCLC): 14.4 µM | TGI (HOP-62 NSCLC): 30.5 µM | GI50 (OVCAR-8 ovarian): 1.94 µM | TGI (OVCAR-8 ovarian): 27.1 µM
